# According to ChEMBL document CHEMBL3739316, “Novel orally active inhibitors of β-1,3-glucan synthesis derived from enfumafungin” (Bioorg Med Chem Lett, 2015):
# pIC50: −log10 of the molar value.
# Columns and labels:
# Beta-1,3-glucan synthase = target: T1, Beta-1,3-glucan synthase (Candida albicans, UniProt O13383); experiment: Displacement of UDP-[3H]glucose from beta-1,3-glucan synthase in Candida albicans MY1055 microsomal membranes incubated for 2 hrs
# T1 sequence (O13383 whole entry): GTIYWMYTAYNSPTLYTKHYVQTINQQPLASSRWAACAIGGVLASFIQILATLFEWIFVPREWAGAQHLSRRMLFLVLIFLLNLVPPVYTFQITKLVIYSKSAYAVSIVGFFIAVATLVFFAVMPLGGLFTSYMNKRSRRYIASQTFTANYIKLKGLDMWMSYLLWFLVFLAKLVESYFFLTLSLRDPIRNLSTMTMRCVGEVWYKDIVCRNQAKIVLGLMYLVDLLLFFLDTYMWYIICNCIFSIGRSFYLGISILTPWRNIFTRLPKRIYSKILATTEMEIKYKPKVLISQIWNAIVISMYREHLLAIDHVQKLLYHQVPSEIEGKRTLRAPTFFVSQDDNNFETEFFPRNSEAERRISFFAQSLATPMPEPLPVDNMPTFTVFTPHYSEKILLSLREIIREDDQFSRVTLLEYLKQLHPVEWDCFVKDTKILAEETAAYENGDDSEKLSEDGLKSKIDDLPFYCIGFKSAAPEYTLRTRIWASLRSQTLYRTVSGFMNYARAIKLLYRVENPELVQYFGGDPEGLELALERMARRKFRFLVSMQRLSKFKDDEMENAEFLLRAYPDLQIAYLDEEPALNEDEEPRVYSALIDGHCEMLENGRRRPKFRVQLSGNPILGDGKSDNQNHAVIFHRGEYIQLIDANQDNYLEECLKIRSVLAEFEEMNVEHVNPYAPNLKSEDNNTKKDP
# Mus musculus [1] = experiment: Dose normalized AUC in orally dosed mouse; assay type: ADME, organism-based; conditions: in vivo, po
# Candida albicans [2] = experiment: Antifungal activity against Candida albicans MY1055 in DBA/2 mouse candidiasis model assessed as change in CFU per gram of kidney at 6.25 mg/kg, ip bid after 4 days by Target Organ Kidney Assay relative to sham treated control; assay type: functional
# Candida albicans [3] = experiment: Antifungal activity against Candida albicans MY1055 in DBA/2 mouse candidiasis model assessed as change in CFU per gram of kidney at 25 mg/kg, ip bid after 4 days by Target Organ Kidney Assay relative to sham treated control; assay type: functional
# Candida albicans [4] = experiment: Antifungal activity against Candida albicans MY1055 after 24 hrs by liquid microdilution assay in presence of human serum; assay type: functional; conditions: MY1055, 24 h
# [5] = Oral bioavailability in mouse; assay type: ADME, organism-based; conditions: in vivo
# Aspergillus fumigatus = experiment: Antifungal activity against Aspergillus fumigatus MF5668 after 24 hrs by liquid microdilution assay; assay type: functional; conditions: MF5668, 24 h, read-out: MEC
# Candida albicans [6] = experiment: Antifungal activity against Candida albicans MY1055 in DBA/2 mouse candidiasis model assessed as change in CFU per gram of kidney at 12.5 mg/kg, ip bid after 4 days by Target Organ Kidney Assay relative to sham treated control; assay type: functional
# Candida albicans [7] = experiment: Antifungal activity against Candida albicans MY1055 after 24 hrs by liquid microdilution assay; assay type: functional; conditions: MY1055, 24 h
# Candida albicans [8] = experiment: Antifungal activity against Candida albicans MY1055 in DBA/2N mouse candidiasis model assessed as mouse survival at 12.5 mg/kg, ip bid after 7 days by Target Organ Kidney Assay relative to sham treated control; assay type: functional; conditions: 168 h
# Candida albicans [9] = experiment: Antifungal activity against Candida albicans MY1055 in DBA/2 mouse candidiasis model assessed as change in CFU per gram of kidney at 12.5 mg/kg, po bid after 4 days by Target Organ Kidney Assay relative to sham treated control; assay type: functional
# Candida albicans [10] = experiment: Antifungal activity against Candida albicans MY1055 in DBA/2N mouse candidiasis model assessed as mouse survival at 12.5 mg/kg, po bid after 7 days by Target Organ Kidney Assay relative to sham treated control; assay type: functional; conditions: 168 h
# Candida albicans [11] = experiment: Antifungal activity against Candida albicans MY1055 in DBA/2N mouse candidiasis model assessed as reduction of fungal burden after 7 days; assay type: functional; conditions: MY1055, 168 h
# Candida albicans [12] = experiment: Antifungal activity against Candida albicans MY1055 in DBA/2N mouse candidiasis model assessed as mouse survival at 6.25 mg/kg, po bid after 4 days by Target Organ Kidney Assay relative to sham treated control; assay type: functional; conditions: 96 h
# Candida albicans [13] = experiment: Antifungal activity against Candida albicans MY1055 in DBA/2 mouse candidiasis model assessed as change in CFU per gram of kidney at 25 mg/kg, po bid after 4 days by Target Organ Kidney Assay relative to sham treated control; assay type: functional
# Candida albicans [14] = experiment: Antifungal activity against Candida albicans MY1055 in DBA/2N mouse candidiasis model assessed as mouse survival at 25 mg/kg, po bid after 7 days by Target Organ Kidney Assay relative to sham treated control; assay type: functional; conditions: 168 h
# Mus musculus [15] = experiment: AUC (0 to 24 hrs) in DBA/2J mouse assessed as metabolite 13e at 10 mg/kg, po; assay type: ADME, organism-based; design: dose 10 mg/kg, time < 24 hr, route oral; conditions: in vivo
# Candida albicans [16] = experiment: Antifungal activity against Candida albicans MY1055 in DBA/2 mouse candidiasis model assessed as change in CFU per gram of kidney at 12.5 mg/kg, po bid after 7 days by Target Organ Kidney Assay relative to sham treated control; assay type: functional
# Candida albicans [17] = experiment: Antifungal activity against Candida albicans MY1055 in DBA/2 mouse candidiasis model assessed as change in CFU per gram of kidney at 6.25 mg/kg, po bid after 7 days by Target Organ Kidney Assay relative to sham treated control; assay type: functional
# [18] = AUC (0 to 24 hrs) in DBA/2J mouse at 10 mg/kg, po; assay type: ADME, organism-based; design: dose 10 mg/kg, time < 24 hr, route oral; conditions: in vivo
# Candida albicans [19] = experiment: Antifungal activity against Candida albicans MY1055 in DBA/2 mouse candidiasis model assessed as change in CFU per gram of kidney at 25 mg/kg, po bid after 7 days by Target Organ Kidney Assay relative to sham treated control; assay type: functional
# Candida albicans [20] = experiment: Antifungal activity against Candida albicans MY1055 in DBA/2 mouse candidiasis model assessed as change in CFU per gram of kidney at 12.5 mg/kg, ip bid after 7 days by Target Organ Kidney Assay relative to sham treated control; assay type: functional
# Candida albicans [21] = experiment: Antifungal activity against Candida albicans MY1055 in DBA/2 mouse candidiasis model assessed as change in CFU per gram of kidney at 6.25 mg/kg, po bid after 4 days by Target Organ Kidney Assay relative to sham treated control; assay type: functional
# Mus musculus [22] = experiment: AUC (0 to 24 hrs) in DBA/2J mouse assessed as metabolite 13c at 10 mg/kg, po; assay type: ADME, organism-based; design: dose 10 mg/kg, time < 24 hr, route oral; conditions: in vivo
# Mus musculus [23] = experiment: AUC (0 to 24 hrs) in DBA/2J mouse assessed as total metabolites at 10 mg/kg, po; assay type: ADME, organism-based; conditions: in vivo
smiles,measurement,setting,value
CC(=O)O[C@@H]1C[C@@]23COCC(C)([C@H]1OCCN)[C@@H]2CC[C@H]1C3=CC[C@@]2(C)[C@H](C(=O)O)[C@@](C)([C@H](C)C(C)C)CC[C@]12C,pIC50,"Beta-1,3-glucan synthase",7.09
same,AUC/dose,Mus musculus [1],0.54 µM·kg·h/mg
same,Activity,Candida albicans [2],-0.3 deltalog10CFU
same,Activity,Candida albicans [3],-0.7 deltalog10CFU
same,MIC,Candida albicans [4],32 µg/mL
same,bioavailability,[5],24%
same,minimal effective concentration,Aspergillus fumigatus,< 0.03 µg/mL
same,Activity,Candida albicans [6],-0.4 deltalog10CFU
same,MIC,Candida albicans [7],1 µg/mL
CC(C)[C@@H](C)[C@@]1(C)CC[C@]2(C)[C@H]3CC[C@H]4C5(C)COC[C@@]4(C[C@@H](n4nnc(N)n4)[C@@H]5OC[C@@](C)(C(C)C)N(C)C)C3=CC[C@@]2(C)[C@@H]1C(=O)O,survival at 12.5 mg/kg,Candida albicans [8],100%
same,Activity,Candida albicans [9],-2.5 deltalog10CFU
same,pIC50,"Beta-1,3-glucan synthase",7.88
same,survival at 12.5 mg/kg,Candida albicans [10],100%
same,ED99,Candida albicans [11],9 mg/kg
same,AUC/dose,Mus musculus [1],0.15 µM·kg·h/mg
same,MIC,Candida albicans [4],8 µg/mL
same,survival at 6.25 mg/kg,Candida albicans [12],40%
same,Activity,Candida albicans [13],-2.6 deltalog10CFU
same,survival at 25 mg/kg,Candida albicans [14],100%
same,bioavailability,[5],17%
same,AUC,Mus musculus [15],1.23 µM·h
same,minimal effective concentration,Aspergillus fumigatus,< 0.03 µg/mL
same,Activity,Candida albicans [16],-2.38 deltalog10CFU
same,Activity,Candida albicans [17],-1.19 deltalog10CFU
same,AUC(0-t) at 24 h,[18],1.27 µM·h
same,Activity,Candida albicans [19],-2.75 deltalog10CFU
same,Activity,Candida albicans [20],-3.36 deltalog10CFU
same,Activity,Candida albicans [21],-0.7 deltalog10CFU
same,AUC,Mus musculus [22],0.11 µM·h
same,Drug uptake,Mus musculus [23],51.3%
same,MIC,Candida albicans [7],0.25 µg/mL
